From patent EP4745134A1 (Jiangsu Yahong Meditech Co., Ltd., priority 2023, dated 2025)

Key:
[1] = target: PRMT5-MTA (Homo sapiens, UniProt O14744); assay: Enzymatic inhibitory activity against PRMT5-MTA (AlphaScreen); assay type: biochemical; settings: read-out: IC50
Outline: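 PRMT5/[…] (1 nM) was preincubated for 30 min at room temperature with 1 µM […] and 2.5 µM SAM, then exposed to compound (10-point, 3-fold from 1000 nM) for 15 min at 23 °C. Histone H4 substrate (5 nM) was added and reacted for 45 min at 23 °C. Symmetric dimethyl-R3 H4 was detected by AlphaScreen and IC50 calculated.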

[2] = test system: HCT116 MTAP KO cells; assay: Inhibitory activity against cell proliferation (CellTiter Glo, 6 days), HCT116 MTAP KO; assay type: cell-based; settings: for IC50: Homo sapiens, HCT-116, 144 h, HCT116 MTAP KO cells, 6 days, CellTiter Glo, read-out: HCT116 MTAP KO IC50; for Selectivity HCT 116-WT/ HCT116 MTAP KO: ratio of IC50 HCT116-WT / HCT116 MTAP KO
Outline: (§1)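 Cells were seeded at 250 per well in McCoy's 5A with 10% FBS and left overnight at 37°C, 5% CO2. Compounds were added as 8-point, 4-fold dilutions from 10000 nM, with DMSO-only controls, for 6 days. IC50 values came from CellTiter Glo luminescence.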

[3] = test system: HCT116-WT cells; assay: Inhibitory activity against cell proliferation (CellTiter Glo, 6 days), HCT116-WT; assay type: cell-based; settings: 144 h, HCT116-WT cells, 6 days, CellTiter Glo; read-out: HCT116-WT IC50
Outline: as §1

PRMT5-MTA, sequence (O14744 whole entry): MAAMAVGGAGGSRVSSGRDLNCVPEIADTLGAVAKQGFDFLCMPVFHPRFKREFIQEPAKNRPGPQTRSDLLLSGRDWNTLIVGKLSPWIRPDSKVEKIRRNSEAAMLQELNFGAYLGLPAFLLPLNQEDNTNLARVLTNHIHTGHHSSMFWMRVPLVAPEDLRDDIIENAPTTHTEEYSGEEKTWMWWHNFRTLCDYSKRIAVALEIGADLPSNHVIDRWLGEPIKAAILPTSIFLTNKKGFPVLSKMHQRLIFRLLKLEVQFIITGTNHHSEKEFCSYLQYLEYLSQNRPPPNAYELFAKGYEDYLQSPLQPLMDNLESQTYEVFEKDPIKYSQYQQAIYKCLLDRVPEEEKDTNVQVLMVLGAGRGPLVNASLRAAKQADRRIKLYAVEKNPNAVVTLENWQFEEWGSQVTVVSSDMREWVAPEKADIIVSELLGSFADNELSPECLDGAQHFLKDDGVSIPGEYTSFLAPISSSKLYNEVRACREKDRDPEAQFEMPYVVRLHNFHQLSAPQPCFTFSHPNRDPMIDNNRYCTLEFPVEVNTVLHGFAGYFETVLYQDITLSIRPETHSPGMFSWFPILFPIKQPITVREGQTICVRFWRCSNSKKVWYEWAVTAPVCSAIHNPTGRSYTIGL
PRMT5-MTA, sequence (Q9BQA1 whole entry partner): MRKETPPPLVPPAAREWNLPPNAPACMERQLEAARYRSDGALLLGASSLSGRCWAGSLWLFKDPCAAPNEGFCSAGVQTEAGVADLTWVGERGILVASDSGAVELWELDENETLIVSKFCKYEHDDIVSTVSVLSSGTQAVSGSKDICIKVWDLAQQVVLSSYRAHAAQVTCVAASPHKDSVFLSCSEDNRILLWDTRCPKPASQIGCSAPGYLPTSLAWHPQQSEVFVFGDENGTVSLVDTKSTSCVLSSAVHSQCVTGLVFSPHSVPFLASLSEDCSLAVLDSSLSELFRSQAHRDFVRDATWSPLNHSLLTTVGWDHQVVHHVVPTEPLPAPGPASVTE

Cc1cc2cc(C(=O)N(Cc3ccc(C(F)(F)F)cn3)N(C)c3ncccn3)ncc2nc1N [Example 306, 2-amino-N',3-dimethyl-N'-(pyrimidin-2-yl)-N-((5-(trifluoromethyl)pyridin-2-yl)methyl) -1,7-naphthyridine-6-carbohydrazide]
IC50 [1]: 0.0049 µM | IC50 [2]: 0.319 µM | Selectivity HCT 116-WT/ HCT116 MTAP KO [2]: 12.15 | IC50 [3]: 3.88 µM

Cc1cc2cc(C(=O)N(Cc3ccc(-c4cnn(C(F)(F)F)c4)cn3)N(c3ncccn3)C3CC3)ccc2nc1N [Example 216, 2-amino-N'-cyclopropyl-3-methyl-N'-(pyrimidin-2-yl)-N-((5-(1-(trifluoromethyl)-1H-pyrazol-4-yl)pyridin-2-yl)methyl)qui noline-6-carbohydrazide]
IC50 [1]: 0.0033 µM | IC50 [2]: 0.023 µM | Selectivity HCT 116-WT/ HCT116 MTAP KO [2]: 27.26 | IC50 [3]: 0.627 µM

Cc1cc2cc(C(=O)N(Cc3ccc(C(F)(F)F)cn3)N(C)c3ccccc3)ccc2nc1N [Example 75, 2-amino-N',3-dimethyl-N'-phenyl-N-((5-(trifluoromethyl)pyridin-2-yl)methyl)quinoline-6-carbohydrazide]
IC50 [1]: 0.0031 µM | IC50 [2]: 0.08 µM | Selectivity HCT 116-WT/ HCT116 MTAP KO [2]: 11.26 | IC50 [3]: 0.901 µM

Cc1cc2cc(C(=O)N(Cc3ccc(C4CCC4)cn3)N(C)c3ncccn3)ccc2nc1N [Example 289, 2-amino-N-((5-cyclobutylpyridin-2-yl)methyl)-N',3-dimethyl-N'-(pyrimidin-2-yl)quinoline-6-carbohydrazide]
IC50 [1]: 0.0009 µM | IC50 [2]: 0.053 µM | Selectivity HCT 116-WT/ HCT116 MTAP KO [2]: 13.04 | IC50 [3]: 0.691 µM

Cc1cc2cc(C(=O)N(Cc3ccc(-c4scnc4C)cn3)N(C)c3nccc4nccnc34)ccc2nc1N [Example 185, 2-amino-N',3-dimethyl-N-((5-(4-methylthiazol-5-yl)pyridin-2-yl)methyl)-N'-(pyrido[3,4-b]pyrazin-5-yl)quinoline-6-carbohydrazide]
IC50 [1]: 0.0047 µM | IC50 [2]: 0.0075 µM | Selectivity HCT 116-WT/ HCT116 MTAP KO [2]: 17.07 | IC50 [3]: 0.128 µM

[2H]C([2H])([2H])N(c1ncccn1)N(Cc1ccc(C(F)(F)F)cn1)C(=O)c1ccc2nc(N)c(C)cc2c1 [Example 2, 2-amino-3-methyl-N'-(methyl-d3)-N'-(pyrimidin-2-yl)-N-((5-(trifluoromethyl)pyridin-2-yl)methyl)quinoline-6-carbohydrazide]
IC50 [1]: 0.0021 µM | IC50 [2]: 0.03 µM | Selectivity HCT 116-WT/ HCT116 MTAP KO [2]: 27.33 | IC50 [3]: 0.82 µM

Cc1cc2cc(C(=O)N(Cc3ccc(C(F)(F)F)cn3)N(C)c3nccc4ncccc34)ccc2nc1N [Example 108, 2-amino-N',3-dimethyl-N'-(1,6-naphthyridin-5-yl)-N-((5-(trifluoromethyl)pyridin-2-yl)methyl)quinoline-6-carbohydrazide]
IC50 [1]: 0.0019 µM | IC50 [2]: 0.141 µM | Selectivity HCT 116-WT/ HCT116 MTAP KO [2]: 24.26 | IC50 [3]: 3.42 µM

Cc1cc2nc(N)c3cnn(C)c3c2cc1C(=O)N1CC(C)(O)CN1c1ncccc1F (centres unmarked) [Example 427, (4-amino-1,7-dimethyl-1H-pyrazolo[4,3-c]quinolin-8-yl)(2-(3-fluoropyridin-2-yl)-4-hydroxy-4-methylpyrazolin-1-yl)methanone]
IC50 [1]: 0.0062 µM | IC50 [2]: 0.235 µM | Selectivity HCT 116-WT/ HCT116 MTAP KO [2]: >42.55 | IC50 [3]: > 10 µM

CC(=O)c1ccc(CN(C(=O)c2ccc3nc(N)c(C)cc3c2)N(C)c2ncccn2)nc1 [Example 294, N-((5-acetylpyridin-2-yl)methyl)-2-amino-N',3-dimethyl-N'-(pyrimidin-2-yl)quinoline-6-carbohydrazide]
IC50 [1]: 0.0019 µM | IC50 [2]: 0.113 µM | Selectivity HCT 116-WT/ HCT116 MTAP KO [2]: 25.71 | IC50 [3]: 2.91 µM

Cc1cc2cc(C(=O)N(Cc3ccc(-c4ccccn4)cn3)N(C)c3ncccn3)ccc2nc1N [Example 141, N-([2,3'-bipyridine]-6'-ylmethyl)-2-amino -N',3-dimethyl-N'-(pyrimidin-2-yl)quino line-6-carbohydrazide]
IC50 [1]: 0.0023 µM | IC50 [2]: 0.076 µM | Selectivity HCT 116-WT/ HCT116 MTAP KO [2]: 26.76 | IC50 [3]: 2.03 µM

Cc1cc2nc(N)c3cnn(C)c3c2cc1C(=O)N1CC2(CC2)CN1c1ncccc1F [Example 366, (4-amino-1,7-dimethyl-1H-pyrazolo[4,3-c]quinolin-8-yl)(6-(3-fluoropyridin-2-yl)-5,6-diazaspiro[2.4]heptan-5-yl)methanone]
IC50 [1]: 0.0079 µM | IC50 [2]: 0.0077 µM | Selectivity HCT 116-WT/ HCT116 MTAP KO [2]: 41.43 | IC50 [3]: 0.319 µM

Cc1cc2nc(N)c3cnn(C)c3c2cc1C(=O)N1CC(C)CN1c1cccc(F)n1 (centres unmarked) [Example 360, (4-amino-1,7-dimethyl-1H-pyrazolo[4,3-c]quinolin-8-yl)(2-(6-fluoropyridin-2-yl)-4-methylpyrazolidin-1-yl)methanone]
IC50 [1]: 0.0052 µM | IC50 [2]: 0.023 µM | Selectivity HCT 116-WT/ HCT116 MTAP KO [2]: 50.74 | IC50 [3]: 1.17 µM

Cc1cc2cc(C(=O)N(Cc3ccc(C(F)(F)F)cn3)N(C)c3ncc4ncccc4n3)ccc2nc1N [Example 80, 2-amino-N',3-dimethyl-N'-(pyrido[3,2-d]pyrimidin-2-yl)-N-((5-(trifluoromethyl)pyridin-2-yl)methyl)quinoline-6-carbohydrazide]
IC50 [1]: 0.0019 µM | IC50 [2]: 0.132 µM | Selectivity HCT 116-WT/ HCT116 MTAP KO [2]: 14.18 | IC50 [3]: 1.87 µM

COc1ccnc(N(C)N(Cc2ccc(C(F)(F)F)cn2)C(=O)c2ccc3nc(N)c(C)cc3c2)n1 [Example 76, 2-amino-N'-(4-methoxypyrimidin-2-yl)-N',3-dimethyl-N-((5-(trifluoromethyl)pyridin-2-yl)methyl)quinoline-6-carbohydrazide]
IC50 [1]: 0.0016 µM | IC50 [2]: 0.098 µM | Selectivity HCT 116-WT/ HCT116 MTAP KO [2]: 21.94 | IC50 [3]: 2.15 µM

Cn1ncc2c(N)nc3cc(Cl)c(C(=O)N4CC(C)(F)CN4c4ncc(F)cc4F)cc3c21 (centres unmarked) [Example 424, (4-amino-7-chloro-1-methyl-1H-pyrazolo [4,3-c]quinolin-8-yl)(2-(3,5-2 fluoropyridin-2-yl)-4-fluoro-4-methylpyrazolidin-1-yl)methanone]
IC50 [1]: 0.0073 µM | IC50 [2]: 0.023 µM | Selectivity HCT 116-WT/ HCT116 MTAP KO [2]: 16.26 | IC50 [3]: 0.374 µM

CC1CN(C(=O)c2cc3c(cc2F)nc(N)c2cnn(C)c23)N(c2ncccc2F)C1 (single isomer, unassigned) [Example 466]
IC50 [1]: 0.0044 µM | IC50 [2]: 0.013 µM | Selectivity HCT 116-WT/ HCT116 MTAP KO [2]: 50.77 | IC50 [3]: 0.66 µM

Cc1cc2cc(C(=O)N(Cc3ccc(-c4cnn(C)c4)cn3)N(C)c3nccc4nccnc34)ccc2nc1N [Example 162, 2-amino-N',3-dimethyl-N-((5-(1-methyl-1H-pyrazol-4-yl)pyridin-2-yl)methyl)-N'-(pyrido[3,4-b]pyrazin-5-yl)quinoline-6-carbohydrazide]
IC50 [1]: 0.0054 µM | IC50 [2]: 0.036 µM | Selectivity HCT 116-WT/ HCT116 MTAP KO [2]: 23.61 | IC50 [3]: 0.85 µM

Cc1cc2nc(N)c3cnn(C)c3c2cc1C(=O)N1CC(C)CN1c1cc(F)ccc1F (centres unmarked) [Example 335, (4-amino-1,7-dimethyl-1H-pyrazolo[4,3-c]quinolin-8-yl)(2-(2,5-difluorophenyl)-4-methylpyrazolidin-1-yl)methanone]
IC50 [1]: 0.0033 µM | IC50 [2]: 0.015 µM | Selectivity HCT 116-WT/ HCT116 MTAP KO [2]: 42.93 | IC50 [3]: 0.644 µM

Cc1cc2nc(N)c3cnn(C)c3c2cc1C(=O)N1CC2(CCC2)CN1c1ncccc1F [Example 348, (4-amino-1,7-dimethyl-1H-pyrazolo[4,3-c]quinolin-8-yl)(7-(3-fluoropyridin-2-yl)-6,7-diazaspiro[3.4]octan-6-yl)methanone]
IC50 [1]: 0.0075 µM | IC50 [2]: 0.0069 µM | Selectivity HCT 116-WT/ HCT116 MTAP KO [2]: 30.14 | IC50 [3]: 0.208 µM

Cn1ncc2c(N)nc3cc(Cl)c(C(=O)N4CC(OCC(F)(F)F)CN4c4ncccc4F)cc3c21 (centres unmarked) [Example 451, (4-amino-7-chloro-1-methyl-1H-pyrazolo[4,3-c]quinolin-8-yl)(2-(3-fluoropyridin-2-yl)-4-(2,2,2-trifluoroethoxy)pyrazolidin-1-yl)methanone]
IC50 [1]: 0.007 µM | IC50 [2]: 0.04 µM | Selectivity HCT 116-WT/ HCT116 MTAP KO [2]: 25.30 | IC50 [3]: 1.01 µM

Cc1cc2cc(C(=O)N(Cc3ccc(C(F)(F)F)cc3F)N(C)c3ncccn3)ccc2nc1N [Example 90, 2-amino-N-(2-fluoro-4-(trifluoromethyl)benzyl)-N',3-dimethyl-N'-(pyrimidin-2-yl) quinoline-6-carbohydrazide]
IC50 [1]: 0.0045 µM | IC50 [2]: 0.098 µM | Selectivity HCT 116-WT/ HCT116 MTAP KO [2]: 22.13 | IC50 [3]: 2.17 µM

[2H]C([2H])([2H])c1cc2cc(C(=O)N(Cc3ccc(-c4sc(C)nc4C)cn3)N(c3ncccn3)C3CC3)ccc2nc1N [Example 317, 2-amino-N'-cyclopropyl-N-((5-(2,4-dimethylthiazol-5-yl)pyridin-2-yl)methyl)-3-(methyl-D3)-N'-(pyrimidin-2-yl)quinoline-6-carbohydrazide]
IC50 [1]: 0.0064 µM | IC50 [2]: 0.023 µM | Selectivity HCT 116-WT/ HCT116 MTAP KO [2]: 10.48 | IC50 [3]: 0.241 µM

Cc1cc2cc(C(=O)N(Cc3ccc(-c4nncs4)cn3)N(C)c3ncccn3)ccc2nc1N [Example 229, N-((5-(1,3,4-thiadiazol-2-yl)pyridin-2-yl)methyl)-2-amino-N',3-dimethyl-N'-(pyrimidin-2-yl)quinoline-6-carbohydrazide]
IC50 [1]: 0.0037 µM | IC50 [2]: 0.014 µM | Selectivity HCT 116-WT/ HCT116 MTAP KO [2]: 47.86 | IC50 [3]: 0.67 µM
